These results are taken from article PMC8617031, “Development of a BCL-xL and BCL-2 dual degrader with improved anti-leukemic activity,” (Nature Communications, 2021).

“And” between values parts separate entries of the source, which are not always exact repeats. Equal entries are not always repeated.

Assay [1] relates to BCL-xL/PROTAC/VCB ternary complex (HiBit-BCL-xL, HaloTag-VHL). The experiment in a line: NanoBRET intracellular ternary complex formation in 293T cells, BCL-xL. The class given is cell-based, human. The conditions noted are these: NanoBRET, 293T cells, 6 h. An excerpt: (§1) Plasmids HaloTag-VHL (Cat. No. CS1679C155) and CMV HiBit (Cat. No. CS1956B03) were purchased from Promega. HiBit-BCL-xL and HiBit-BCL-2 were constructed previously. The two mutants (HiBit-BCL-xL-K157-only and HiBit-BCL-xL-K-ko) were constructed through Gibson assembly method. The primer pair (5′-[…]-3′ and 5′-[…]c[…]-3′) and the template Flag-BCL-xL-K157-only or Flag-BCL-xL-K-ko (pDL2129)[2] were used to clone the BCL-xL-K157-only-containing and BCL-xL-K-ko-containing fragments, respectively. The primer pair (5′-[…]g[…]-3′ and 5′-[…]-3′) and pBit3.1-N (Cat. No. N2361, Promega) were used to clone the vector-containing fragment. The PCR fragments were assembled using NEBuilder® HiFi DNA Assembly Master Mix (Cat. No. E2621, NEB, Ipswich, MA, USA). DNA sequences in all these plasmids were authenticated by automatic sequencing. […] After 24 h, 2 × 10^4 transfected cells were seeded into white 96-well tissue culture plates in Gibco™ Opti-MEM™ I Reduced Serum Medium, No Phenol Red (Cat. No. 11-058-021, Fisher) containing 4% FBS with or without HaloTag NanoBRET 618 Ligand (Cat. No. PRN1662, Promega) and incubated overnight at 37 °C, 5% CO2. The following day, serial diluted compounds were added into the medium and plates were incubated at 37 °C, 5% CO2, for 6 h. After treatment, NanoBRET Nano-Glo Substrate (cat. no. N1662, Promega) was added into the medium, and the contents were mixed by shaking the plate for 30 s before measuring donor and acceptor signals on Biotek plate reader. Dual-filtered luminescence was collected with a 450/50 nm bandpass filter (donor, NanoBiT-BCL-XL protein or NanoBiT-BCL-2 protein) and a 610-nm longpass filter (acceptor, HaloTag NanoBRET ligand) using an integration time of 0.5 s. mBRET ratios were calculated following the NanoBRET™ Nano-Glo® Detection System (Cat. No. N1662, Promega).
(In general: Bioluminescence resonance energy transfer reports proximity on the nanometre scale.)

In a further assay the target is T1, BCL-2 (Homo sapiens, UniProt P10415).
T1 construct: endogenous in cells
The experiment in a line: BCL-2 degradation by immunoblot in 293T cells. The format is cell-based. The settings on record: 293T, 16 h, Supplementary Fig. 1b. As for the experimental part: (§2) The DC50 and Dmax were calculated using Prism based on the ImageJ-quantified western blots in Supplementary Fig. 4. c, d AlphaLISA assay to determine the formation of BCL-xL/PROTAC/VHL-ELOC-ELOB (VCB) (c) or BCL-2/PROTAC/VCB (d) ternary complex in a cell-free condition. Data represent the mean of a single experiment with 2 technical replicates. Similar results were obtained in one more independent experiment. e, f NanoBRET assays evaluating intracellular BCL-xL/PROTAC/VCB (e) or BCL-2/PROTAC/VCB (f) ternary complex formation. […] Data are expressed as mean ± s.e.m. of three biological replicates. Source data are provided as a Source data file.
(§3) Representative immunoblots are shown in (a–d) and β-actin was used as a loading control in all immunoblot analyses. The normalized protein content in the immunoblots is presented as mean values ± s.e.m. (n = 3 biologically independent experiments) in the bar graph (bottom panel). e, f The formation of BCL-xL/PROTAC/VCB (e) and BCL-2/PROTAC/VCB (f) ternary complexes in a cell-free condition was determined by AlphaLISA assay. Data represent the mean of a single experiment with 2 technical replicates. […] Source data are provided as a Source data file.
(§4) Cells were collected, washed once with ice-cold phosphate-buffered saline, pH 7.2 (PBS, cat. no. 20012027; Thermo Fisher Scientific) and lysed in RIPA lysis buffer (Cat. No. BP-115DG, Boston Bio Products, Ashland, MA, USA) supplemented with protease and phosphatase inhibitor cocktails (Cat. No. PPC1010, Sigma-Aldrich, St. Louis, MO, USA) through sonication. The samples were centrifuged at 14,000 r.p.m. for 5 min and the supernatants were transferred into a new tube. The protein concentration in the supernatants was determined using the Pierce BCA protein Assay kit (cat. no. 23225, Thermo Fisher Scientific). The protein concentration was normalized, and the samples were reduced in 4× Laemmli’s SDS-sample buffer (cat. no. BP-110R, Boston Bio Products) and denatured at 95 °C for 5 min. An equal amount of protein samples (20–40 μg per lane) were resolved using precast 4–20% Tris-glycine gels (Mini-PROTEAN TGX, cat. no. 456–1094, Bio-Rad), and resolved proteins were transferred onto 0.2-µm pore size polyvinylidene difluoride (PVDF) blotting membranes (cat. no. LC2002, Thermo Fisher Scientific) using mini trans-blot electrophoretic transfer cell (Bio-Rad). The membranes were blocked with non-fat dry milk (5% wt/vol) in 1× Tris-buffered saline-Tween-20 (TBST, cat. no. J77500, Affymetrix) for 1 h at room temperature, and were subsequently probed with primary antibodies at a predetermined optimal concentration in non-fat dry milk (5% wt/vol in TBST) overnight at 4 °C. The membranes were washed three times (5 min each) in TBST and then incubated with horse radish peroxidase (HRP)-conjugated secondary antibodies for 1 h at room temperature. Following sufficient washing with TBST, the membranes were exposed with chemiluminescent HRP substrate (cat. no. WBKLS0500, MilliporeSigma), and the signal was detected using the ChemiDoc MP Imaging System (Bio-Rad) and quantified using the ImageJ (v1.53a) software from NIH.

Another assay deals with T2, BCL-xL (Homo sapiens, UniProt Q07817).
T2 construct: endogenous in cells
Description: BCL-xL degradation by immunoblot in 293T cells. The settings on record: 16 h; for normalized BCL-xL protein content: 293T, Supplementary Fig. 1b. The format is cell-based. The method, then: as §2, §3, §4
(In western blotting, separated proteins are transferred to a membrane and probed.)

The test system of assay [2] is BCL-2/PROTAC/VCB ternary complex (HiBit-BCL-2, HaloTag-VHL). The experiment in a line: NanoBRET intracellular ternary complex formation in 293T cells, BCL-2. The conditions noted are these: NanoBRET, 293T cells, 6 h. The class given is cell-based, human.
Description: as §1

[3] abbreviates: XZ739 concentration 0.003 (unit not given), untreated = 100, 2 replicates.

T2 sequence (Q07817 whole entry): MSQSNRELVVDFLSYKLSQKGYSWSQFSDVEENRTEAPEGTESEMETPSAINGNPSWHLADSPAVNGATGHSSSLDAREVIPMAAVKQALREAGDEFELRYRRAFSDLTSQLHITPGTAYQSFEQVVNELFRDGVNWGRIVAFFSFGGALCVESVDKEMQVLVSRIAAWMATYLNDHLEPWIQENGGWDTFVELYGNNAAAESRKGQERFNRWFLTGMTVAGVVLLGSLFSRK
T1 sequence (P10415 whole entry): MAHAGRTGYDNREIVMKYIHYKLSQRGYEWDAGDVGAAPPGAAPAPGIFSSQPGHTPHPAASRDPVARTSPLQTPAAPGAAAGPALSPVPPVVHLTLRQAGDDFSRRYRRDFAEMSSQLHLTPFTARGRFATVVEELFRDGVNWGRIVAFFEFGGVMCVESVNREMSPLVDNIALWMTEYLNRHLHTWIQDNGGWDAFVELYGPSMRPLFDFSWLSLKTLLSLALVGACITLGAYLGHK

For the molecule `CN(CCOCCOCCOCCNc1cccc2c1C(=O)N(C1CCC(=O)NC1=O)C2=O)CC[C@H](CSc1ccccc1)Nc1ccc(S(=O)(=O)NC(=O)c2ccc(N3CCN(CC4=C(c5ccc(Cl)cc5)CCC(C)(C)C4)CC3)cc2)cc1S(=O)(=O)C(F)(F)F` (some centres unmarked) [XZ739, reference compound], the “intracellular ternary complex formation with BCL-xL (in words)” value in assay [1] was “formed cellular ternary complexes with both BCL-xL and BCL-2”. Moreover, the “normalized BCL-2 protein content” value is 116 and 103 on BCL-2 (setting [3]); 119 and 99 at BCL-2 (concentration 0.01); 113 and 104 at BCL-2 (concentration 0.03); 114 and 109 at BCL-2 (concentration 0.1); 119 and 101 on BCL-2 (concentration 0.3); 102 and 95 on BCL-2 (concentration 1). For the same molecule, the “normalized BCL-2 protein content” value at BCL-2 (concentration 3) is 97 and 102. For the same molecule, the “BCL-xL degradation (in words)” value on BCL-xL (293T cells) is “could degrade BCL-xL”. For the same molecule, the “normalized BCL-xL protein content” value at BCL-xL (setting [3]) is 88 and 95; at BCL-xL (concentration 0.01) it was 85 and 86; at BCL-xL (concentration 0.03) it was 76 and 80; on BCL-xL (concentration 0.1) it was 67 and 65; on BCL-xL (concentration 0.3), 32 and 40; at BCL-xL (concentration 1), 32 and 31. Further, the “normalized BCL-xL protein content” value at BCL-xL (concentration 3) was 22 and 19. In assay [2], the “intracellular ternary complex formation with BCL-2 (in words)” value was “formed cellular ternary complexes with both BCL-xL and BCL-2”.
